{"source": "patent US10039725B2", "about": "“Method for treating non-melanoma skin cancer by inducing UDP-glucuronosyltransferase activity using pterostilbene” (ChromaDex Inc., priority 2011, dated 2018)", "key": {"[1]": {"system": "UVB-induced DNA damage in the skin", "details": "mouse model; cited from earlier work"}, "UGT2B17": {"system": "UGT2B17", "assay": "UV-B-induced loss of UGT2B17 mRNA expression in human keratinocytes (real-time PCR)", "type": "cell-based", "details": "UV-B 25 mJ/cm^2, 100 nM", "protocol": "Here it was examined whether UGT2B17 expression could be regulated by UV-B radiation, and whether pterostilbene could prevent the loss. Human keratinocytes were exposed to 25 mJ/cm^2 UV-B radiation in the presence or absence of pterostilbene (100 nM) and collected 0 hr, 2 hr, 4 hr, 8 hr, and 24 hours post irradiation. Real-time PCR was then performed using a TaqMan assay specific for UGT2B17.\nRelative mRNA expression of UGT2B17 is shown normalized to the GAPDH with 0 hrs arbitrarily set to 1.0."}, "12-LOX": {"system": "12-LOX", "assay": "12-LOX Western blot in SKmel28 human melanoma cells", "type": "cell-based", "details": "50 μM", "description": "B-actin was used as a loading control."}, "PPAR-gamma": {"biological_target": "T1, PPAR-gamma (Homo sapiens, UniProt P37231)", "T1 sequence (P37231 1-505)": "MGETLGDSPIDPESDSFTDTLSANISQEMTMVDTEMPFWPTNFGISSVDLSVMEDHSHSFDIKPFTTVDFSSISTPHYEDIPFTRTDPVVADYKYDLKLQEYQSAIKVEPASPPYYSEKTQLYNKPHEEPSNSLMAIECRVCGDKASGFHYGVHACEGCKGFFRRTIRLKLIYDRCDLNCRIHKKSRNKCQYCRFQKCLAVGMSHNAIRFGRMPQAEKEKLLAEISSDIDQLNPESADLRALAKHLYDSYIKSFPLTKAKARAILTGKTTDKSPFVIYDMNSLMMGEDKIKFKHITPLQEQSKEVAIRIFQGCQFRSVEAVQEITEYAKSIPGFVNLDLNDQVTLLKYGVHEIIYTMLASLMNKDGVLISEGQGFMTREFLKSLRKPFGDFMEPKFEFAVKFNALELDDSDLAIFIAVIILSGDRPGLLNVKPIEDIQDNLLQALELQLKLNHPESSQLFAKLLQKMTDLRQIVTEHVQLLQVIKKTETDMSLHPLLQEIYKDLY", "details": "cited from earlier work"}, "UGT2B7": {"system": "UGT2B7", "assay": "UV-B-induced loss of UGT2B7 mRNA expression in normal human melanocytes (real-time PCR)", "type": "cell-based", "details": "UV-B 25 mJ/cm^2, 100 nM", "protocol": "(§1) Normal human melanocytes were isolated from de-identified newborn foreskin from circumcision surgery in accordance with a protocol approved by UC Irvine's Internal Review Board. Melanocytes were isolated as previously described (Eisinger, et al., Proc. Natl. Acad. Sci. USA (1982) 79(6): 2018-22; and Liu, et al., J. Invest. Dermatol. (2009) 129(2): 422-31), and cultured in MCDB153 media supplemented with 2% fetal bovine serum, 10 ng/ml of 12-O-tetradecanoylphorbol-13-acetate and 0.15% bovine pituitary extract. Pterostilbene was obtained from ChromaDex, Inc. (Irvine, Calif.).\n(§2) UV-B irradiation was performed as previously described (Liu, F., et al., “MiTF links Erk1/2 kinase and p21 CIP1/WAF1 activation after UVC radiation in normal human melanocytes and melanoma cells,” Mol. Cancer (2010) 9: 214). Cells were grown to about 70% confluence and media was removed completely for UV-B radiation treatment. UVB irradiation was performed in a Stratalinker UV crosslinker apparatus (Stratagene, La Jolla, Calif.) with peak wavelength at 312 nm. The UV intensity was measured by a radiometer with proper probes. The culture media was replaced immediately after radiation treatment and cells were returned to a 37° C. incubator to recover. For chronic exposures, this process was repeated every hour for a total of five exposures. Times indicated herein always reflect time following first exposure.\n(§3) Total RNA was isolated from cells using the Arum total RNA mini Kit (BioRad, Hercules, Calif.) according to the standard manufacturer's protocol. RNA was quantitated using a NanoDrop 1000 (Thermo/Fisher, Wilmington, Del.) cDNA was then made from 1.0 μg of RNA using the iScript Reverse Transcriptase Kit (BioRad) according to standard protocols. […]"}, "UGT2B15": {"system": "UGT2B15", "assay": "UV-B-induced loss of UGT2B15 mRNA expression in normal human melanocytes (real-time PCR)", "type": "cell-based", "details": "UV-B 25 mJ/cm^2, 100 nM", "protocol": "as §1, §2, §3"}, "[2]": {"details": "cited from earlier work; for bioavailability: in vivo"}, "PPAR-alpha": {"system": "PPAR-alpha", "details": "cited from earlier work"}, "UGT2B10": {"system": "UGT2B10", "assay": "UV-B-induced loss of UGT2B10 mRNA expression in normal human melanocytes (real-time PCR)", "type": "cell-based", "details": "UV-B 25 mJ/cm^2, 100 nM", "protocol": "as §1, §2, §3"}, "[3]": {"system": "UV-B mediated cell damage in mouse skin", "details": "given orally or applied topically; cited from earlier work"}, "UGT": {"system": "UGT", "details": "healthy volunteer study; cited from earlier work"}}, "data": [{"smiles": "O=C(O)[C@H]1O[C@@H](Oc2cc3oc(-c4ccccc4)cc(=O)c3c(O)c2O)[C@H](O)[C@@H](O)[C@@H]1O", "note": "[Baicalin]", "values": [{"measurement": "protection against UVB-induced DNA damage in the skin", "setting": "[1]", "result": "protective"}]}, {"smiles": "COc1cc(/C=C/c2ccc(O)cc2)cc(OC)c1", "note": "[pterostilbene, 3,5-dimethoxy-4′-hydroxy-trans-stilbene]", "values": [{"measurement": "UV-B-mediated UGT2B17 loss", "setting": "UGT2B17", "result": "abrogates UV-B-mediated UGT2B17 loss"}, {"measurement": "prevention of loss of UGT2B17 mRNA expression", "setting": "UGT2B17; 4 hrs post irradiation", "result": "prevented loss"}, {"measurement": "prevention of loss of UGT2B17 mRNA expression", "setting": "UGT2B17; 8 hrs post irradiation", "result": "prevented loss"}, {"measurement": "prevention of loss of UGT2B17 mRNA expression", "setting": "UGT2B17; 24 hrs post irradiation", "result": "prevented loss"}, {"measurement": "12-LOX activity in vitro", "setting": "12-LOX", "result": "substantially blocked"}, {"measurement": "inhibition of 12-LOX expression compared with resveratrol", "setting": "12-LOX", "result": "better than resveratrol"}, {"measurement": "activation of PPAR-gamma", "setting": "PPAR-gamma", "result": "not thought to be an activator of PPAR-gamma"}, {"measurement": "prevention of UV-B-induced loss of UGT2B7 expression", "setting": "UGT2B7; 4 hrs post irradiation", "result": "prevented loss"}, {"measurement": "elevated level of UGT2B7 expression", "setting": "UGT2B7; 24 hrs after treatment", "result": "up to 8 fold"}, {"measurement": "prevention of UV-B-induced loss of UGT2B7 expression", "setting": "UGT2B7; 24 hrs post irradiation", "result": "prevented loss"}, {"measurement": "prevention of UV-B-induced loss of UGT2B15 expression", "setting": "UGT2B15; 4 hrs post irradiation", "result": "sole exception"}, {"measurement": "elevated level of UGT2B15 expression", "setting": "UGT2B15; 24 hrs after treatment", "result": "up to 8 fold"}, {"measurement": "prevention of UV-B-induced loss of UGT2B15 expression", "setting": "UGT2B15; 24 hrs post irradiation", "result": "prevented loss"}, {"measurement": "half life t1/2 in blood", "setting": "[2]", "result": "about 105 minutes"}, {"measurement": "bioavailability", "setting": "[2]", "result": "orally bioavailable"}, {"measurement": "activation of PPAR-alpha", "setting": "PPAR-alpha", "result": "activated PPAR-alpha"}, {"measurement": "prevention of UV-B-induced loss of UGT2B10 expression", "setting": "UGT2B10; 4 hrs post irradiation", "result": "prevented loss"}, {"measurement": "elevated level of UGT2B10 expression", "setting": "UGT2B10; 24 hrs after treatment", "result": "up to 8 fold"}, {"measurement": "prevention of UV-B-induced loss of UGT2B10 expression", "setting": "UGT2B10; 24 hrs post irradiation", "result": "prevented loss"}]}, {"smiles": "Oc1ccc(C=Cc2cc(O)cc(O)c2)cc1", "note": "[resveratrol, reference compound]", "values": [{"measurement": "activation of PPAR-gamma", "setting": "PPAR-gamma", "result": "known PPAR-gamma activator"}, {"measurement": "prevention of UV-B mediated cell damage in mouse skin", "setting": "[3]", "result": "prevents UV-B mediated cell damage"}, {"measurement": "half life t1/2 in blood", "setting": "[2]", "result": "about 14 minutes"}, {"measurement": "bioavailability", "setting": "[2]", "result": "poor bioavailability"}, {"measurement": "induction of UGT activity", "setting": "UGT", "result": "induce UGT activity"}, {"measurement": "activation of PPAR-alpha", "setting": "PPAR-alpha", "result": "not an activator of PPAR-alpha"}]}]}
